Data from patent US11014904B2, “1,2,4-triazine-3-amine derivative, preparation method therefor, and use thereof in medicine” (Jiangsu Hengrui Medicine Co., Ltd., priority 2017, dated 2021).

Tests used:
[1] = target: T1, adenosine A2a receptor (A2aR) (Homo sapiens, UniProt P29274); experiment: Inhibition of the adenosine A2a receptor cAMP signaling pathway in CHO-K1/A2aR cells (HTRF); assay type: cell-based; settings: CHO-K1/A2aR cells, cAMP, NECA 20 nM; Table 1
T1 construct: expressed in transfected cells; host or cells: CHO-K1
T1 sequence (P29274 whole entry): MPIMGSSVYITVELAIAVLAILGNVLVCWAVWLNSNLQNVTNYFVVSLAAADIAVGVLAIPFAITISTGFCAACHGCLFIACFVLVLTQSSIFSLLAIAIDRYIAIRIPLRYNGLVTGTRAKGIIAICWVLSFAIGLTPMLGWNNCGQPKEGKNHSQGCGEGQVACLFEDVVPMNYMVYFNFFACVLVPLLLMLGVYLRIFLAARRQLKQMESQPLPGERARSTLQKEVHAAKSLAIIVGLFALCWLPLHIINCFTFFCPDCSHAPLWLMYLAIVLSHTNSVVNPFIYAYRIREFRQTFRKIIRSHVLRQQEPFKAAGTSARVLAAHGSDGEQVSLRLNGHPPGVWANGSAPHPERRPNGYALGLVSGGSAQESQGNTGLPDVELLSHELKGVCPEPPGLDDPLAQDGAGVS
Excerpt: (§1) Determination of the inhibition activity of the compounds of the present invention on the adenosine A2a receptor (A2aR) cAMP signaling pathway, the adenosine A2b receptor (A2bR) cAMP signaling pathway, the adenosine A1 receptor (A1R) cAMP signaling pathway and the adenosine A3 receptor (A3R) cAMP signaling pathway.
(§2) The inhibition activity of the compounds of the present invention on the adenosine A2a receptor (A2aR) cAMP signaling pathway, the adenosine A2b receptor cAMP signaling pathway, the adenosine A1 receptor cAMP signaling pathway and the adenosine A3 receptor cAMP signaling pathway was determined by the following method. The experimental method is briefly described as follows:
2.1 Adenosine A2a receptor
CHO-K1/A2aR cells were cultured in DMEM/F12 medium containing 10% fetal bovine serum and 800 μg/ml bleomycin. The cells were digested with the cell separation buffer during the experiment. The cells were resuspended in the balanced salt buffer containing 20 mM HEPES and 0.1% bovine serum albumin and counted, and the cell density was adjusted to 10^6 cells/ml. In the 384-well plate, each well was added with 5 μl of cell suspension, and 2.5 μl of test compound (4× concentration) formulated with the balanced salt buffer containing 20 mM HEPES, 0.1% bovine serum albumin, 54 μM rolipram and 2.7 U/ml adenosine deaminase, and the plate was incubated at room temperature for 30 minutes. Each well was then added with 2.5 μl of […] (4× concentration) formulated with the balanced salt buffer containing 20 mM HEPES, 0.1% bovine serum albumin, 54 μM rolipram and 2.7 U/ml adenosine deaminase, and the plate was incubated at room temperature for 30 minutes. The final concentrations of the compounds were: 10000, 2000, 400, 80, 16, 3.2, 0.64, 0.128, 0.0256, 0.00512, and 0.001024 nM. The final concentration of […] was 20 nM. Intracellular cAMP concentration was detected with the cAMP dynamic 2 kit. cAMP-d2 and Anti-cAMP-Eu-Cryptate were diluted respectively with the cAMP lysis buffer at a ratio of 1:4. Each well was added with 5 μl of diluted cAMP-d2, followed by addition of 5 μl of diluted Anti-cAMP-Eu-Cryptate, and the plate was incubated at room temperature in the dark for 1 hour. The HTRF signal values were read by the PHERAstar multi-function microplate reader.

[2] = target: T2, adenosine A2b receptor (A2bR) (Homo sapiens, UniProt P29275); experiment: Inhibition of the adenosine A2b receptor cAMP signaling pathway in CHO-K1/A2bR cells (HTRF); assay type: cell-based; settings: ethyl carbazole 1 μM, Table 2
T2 construct: expressed in transfected cells; host or cells: CHO-K1
T2 sequence (P29275 1-332): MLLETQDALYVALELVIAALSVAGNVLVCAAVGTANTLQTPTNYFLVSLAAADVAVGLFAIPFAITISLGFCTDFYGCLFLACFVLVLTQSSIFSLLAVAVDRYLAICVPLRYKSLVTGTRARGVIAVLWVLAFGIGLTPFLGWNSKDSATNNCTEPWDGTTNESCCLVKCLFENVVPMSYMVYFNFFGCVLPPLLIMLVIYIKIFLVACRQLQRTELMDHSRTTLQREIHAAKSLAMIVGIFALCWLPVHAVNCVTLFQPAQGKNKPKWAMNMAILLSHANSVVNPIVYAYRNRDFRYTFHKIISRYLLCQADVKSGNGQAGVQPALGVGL
Excerpt: as §1, §2
2.2 Adenosine A2b Receptor
CHO-K1/A2bR cells were cultured in DMEM/F12 medium containing 10% fetal bovine serum and 1 mg/ml G418. The cells were digested with the cell separation buffer during the experiment. The cells were resuspended in the balanced salt buffer containing 20 mM HEPES and 0.1% bovine serum albumin and counted, and the cell density was adjusted to 10^6 cells/ml. In the 384-well plate, each well was added with 5 μl of cell suspension, and 2.5 μl of test compound (4× concentration) formulated with the balanced salt buffer containing 20 mM HEPES, 0.1% bovine serum albumin, 54 μM rolipram and 2.7 U/ml adenosine deaminase, and the plate was incubated at room temperature for 30 minutes. Each well was then added with 2.5 μl of […] (4× concentration) (Torcis, 1691/10) formulated with the balanced salt buffer containing 20 mM HEPES, 0.1% bovine serum albumin, 54 μM rolipram and 2.7 U/ml adenosine deaminase, and the plate was incubated at room temperature for 30 minutes. The final concentrations of the compounds were: 100000, 10000, 1000, 100, 10, 1, 0.1 and 0 nM. The final concentration of […] was 1 μM. Intracellular cAMP concentration was detected with the cAMP dynamic 2 kit. cAMP-d2 and Anti-cAMP-Eu-Cryptate were diluted respectively with the cAMP lysis buffer at a ratio of 1:4. Each well was added with 5 μl of diluted cAMP-d2, followed by addition of 5 μl of diluted Anti-cAMP-Eu-Cryptate, and the plate was incubated at room temperature in the dark for 1 hour. The HTRF signal values were read by the PHERAstar multi-function microplate reader.

SMILES | IC50 [1] | IC50 [2]
Cc1ccnc2ccc(-c3nnc(N)nc3-c3ccccc3)cc12 [Example 14, 6-(4-Methylquinolin-6-yl)-5-phenyl-1,2,4-triazin-3-amine] | 0.1 nM | 3 nM
COc1ccnc2ccc(-c3nnc(N)nc3-c3ccccc3)cc12 [Example 23, 6-(4-Methoxyquinolin-6-yl)-5-phenyl-1,2,4-triazin-3-amine] | 0.4 nM | 17 nM
Cc1ncnc2ccc(-c3nnc(N)nc3-c3ccc(Cl)cc3)cc12 [Example 46, 5-(4-Chlorophenyl)-6-(4-methylquinazolin-6-yl)-1,2,4-triazin-3-amine] | 1.6 nM | 18 nM

Other lines, results leading:

IC50 [1] | IC50 [2] | SMILES
0.7 nM | 4 nM | Nc1nnc(-c2cc(Cl)c3ncccc3c2)c(-c2ccccc2)n1 [Example 4, 6-(8-Chloroquinolin-6-yl)-5-phenyl-1,2,4-triazin-3-amine]
0.4 nM | 46 nM | Cc1ccc(-c2nc(N)nnc2-c2cc(C)c3ncccc3c2)o1 [Example 5, 5-(5-Methylfuran-2-yl)-6-(8-methylquinolin-6-yl)-1,2,4-triazin-3-amine]
1.5 nM | 4 nM | COc1cc(-c2nnc(N)nc2-c2ccccc2)cc2cccnc12 [Example 25, 6-(8-Methoxyquinolin-6-yl)-5-phenyl-1,2,4-triazin-3-amine]
